The results in this text go back to patent US10538490B2, “Benzylaminopyridylcyclopropanecarboxylic acids, pharmaceutical compositions and uses thereof” (Boehringer Ingelheim International GmbH, priority 2016, dated 2020).

The target of one data set is human GPR40 receptor (Homo sapiens, UniProt O14842). As to the kind of experiment: IP1 accumulation measurements using the IPOne assay system. In kind it is cell-based. The settings on record: 1321N1 cells stably expressing human GPR40 receptor, stimulation 1 h at 37° C. As to the method:
IP1 accumulation measurements using the IPOne assay system—1321N1 cells stably expressing human GPR40 receptor (Euroscreen, Belgium) are seeded 24 h before the assay in white 384-well plates in culture medium containing 10% FCS, 1% Na-Pyruvate and 400 μg/mL G418. IPi is assayed according to the manufacturer's description (Cisbio Bioassays, France). In brief, the assay is started by substitution of the culture medium by stimulation buffer (Hepes 10 mM, CaCl2 1 mM, MgCl2 0.5 mM, KCl 4.2 mM, NaCl 146 mM, glucose 5.5 mM and LiCl 50 mM, pH 7.4). Cells are stimulated for 1 h at 37° C., 5% CO2 by addition of the compounds that are diluted in stimulation buffer containing LiCl. Assays are stopped by adding HTRF-conjugates (IP1-d2 and Anti-IP1 cryptate Tb) and lysis buffer, provided by the manufacturer. After an incubation time of 1 h at room temperature plates are measured using an EnVision™, Perkin Elmer. The obtained fluorescence ratios at 665/615 […] are then used to calculate the pEC50 values using Assay Explorer 3.3 Software (Accelrys, Inc.) by interpolation using an IP1 reference curve and subsequent sigmoidal curve fitting allowing for a variable hill slope.

Data set [1] can be described thus: Chemical stability (degradation kinetics) at pH value of ca. 1.2. It counts as physicochemical. The conditions noted are these: pH value of ca. 1.2 (acetonitrile/0.1 M aqueous HCl 2:3), 37° C., HPLC. The protocol: Degradation kinetics is used to simulate chemical stability of compounds in the acidic part of the gastro intestinal tract. […] Their application as medical drugs to treat human diseases is therefore less restricted and troublesome.
The chemical stability of the compounds of the invention at pH value of ca. 1.2 is determined as follows:
Compound is dissolved in an HPLC vial either in a mixture of acetonitrile/0.1 M aqueous HCl (2:3; pH ca. 1.2) or in a mixture of acetonitrile/Mcllvaine buffer pH 7.4 (2:3) to get a concentration of approximately 0.25 mg/ml. The vial was then transferred into an HPLC autosampler system and maintained at a temperature of 37° C. A first sample is taken and injected immediately into a standard HPLC system with a UV DAD detector. Further samples are injected after 2, 4, 6, 8 and 10 hours. Amount of degraded compound is measured by determining the recovery rate of compound [%] for each injection using an HPLC standard gradient method. Therefore the peak area of the main peak for the first injection (AUt0) is determined and set as 100%. Peak area of the main peak is determined also for the further injections (AUtn, n=2, 4, 6, 8, 10) and expressed as fraction of […] [%].

Data set [2] is described as follows: Aqueous solubility in buffer versus acetonitrile/water (1/1), LC-UV. It counts as physicochemical. The settings on record: kinetic from dmso stock, buffer pH 2.2, 24 h shaking, 2.5% DMSO, ">" if more than 90% dissolved. The protocol: The aqueous solubility of the compounds of the invention is determined by comparing the amount dissolved in buffer to the amount in an acetonitrile/water (1/1) solution. Starting from a 10 mM DMSO stock solution aliquots are diluted with acetonitrile/water (1/1) or buffer, respectively. After 24 h of shaking, the solutions are filtrated and analyzed by LC-UV. The amount dissolved in buffer is compared to the amount in the acetonitrile solution.
Solubility is usually being measured from 0.001 to 0.125 mg/mL at a DMSO concentration of 2.5%. If more than 90% of the compound is dissolved in buffer, the value is marked with “>”.

SMILES strings stand for the structures. ≈ marks a conversion by molar mass, not a printed value.

Chain of human GPR40 receptor (O14842 whole entry): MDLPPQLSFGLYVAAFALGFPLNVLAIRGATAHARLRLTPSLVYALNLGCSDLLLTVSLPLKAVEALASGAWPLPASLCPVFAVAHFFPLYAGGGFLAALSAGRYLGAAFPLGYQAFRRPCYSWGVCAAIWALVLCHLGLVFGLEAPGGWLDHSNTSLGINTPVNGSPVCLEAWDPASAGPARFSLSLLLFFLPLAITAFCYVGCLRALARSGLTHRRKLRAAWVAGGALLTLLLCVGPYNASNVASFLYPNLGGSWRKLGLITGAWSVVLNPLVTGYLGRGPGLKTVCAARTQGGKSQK

For the compound `CC(C)(O)CCOc1ccc(-c2cc(CNc3ccc([C@H]4C[C@@H]4C(=O)O)cn3)ccc2C(F)(F)F)cc1` [Example 4, (1S,2S)-2-(6-{[4′-(3-Hydroxy-3-methyl-butoxy)-6-trifluoromethyl-biphenyl-3-ylmethyl]-amino}-pyridin-3-yl)-cyclopropanecarboxylic Acid], the concentration for a half-maximal effect (EC50) (as a rule, the concentration that produces a half-maximal response) at human GPR40 receptor was 15 nM. Besides, the “Amount of degradation after 2 h” value in data set [1] was below 0.5%. In addition, in data set [2], the solubility (as a rule, the dissolved amount per volume that the medium holds) at 24 h was 92 µg/mL (≈ 179 µM).
With `Cc1c(C#N)cccc1-c1ccc(F)c2c1CC[C@H]2Oc1ccc([C@H]2C[C@@H]2C(=O)O)cc1` [WO 2013/178575 Example 54, reference compound], the “Amount of degradation after 2 h” value in data set [1] came out at 2.5%. The same compound had a solubility at 24 h in data set [2] below 1 µg/mL.
For `Cc1cc(OCCC(C)(C)O)cc(C)c1-c1ccc(F)c2c1CC[C@H]2Oc1ccc([C@H]2C[C@@H]2C(=O)O)cc1` [WO 2013/178575 Example 17, reference compound], in that order: 8% and below 1 µg/mL.
At human GPR40 receptor, `Cc1cccc(C)c1-c1ccc(F)c(CNc2ccc([C@H]3C[C@@H]3C(=O)O)cn2)c1` [Example 18] returned an EC50 of 131 nM. For the same compound, in data set [1], the “Amount of degradation after 2 h” value is below 0.5%. For the same compound, the solubility at 24 h in data set [2] was above 120 µg/mL.
With `Cc1cc(C(=O)NCC(C)(C)O)cc(C)c1-c1ccc(F)c2c1CC[C@H]2Oc1ccc([C@H]2C[C@@H]2C(=O)O)cc1` [WO 2013/178575 Example 15, reference compound], in data set [1], the “Amount of degradation after 2 h” value was 3%. The compound further returned a solubility at 24 h in data set [2] below 1 µg/mL.
On to `Cc1cc(OCCCS(C)(=O)=O)cc(C)c1-c1ccc(F)c2c1CC[C@H]2Oc1ccc([C@H]2C[C@@H]2C(=O)O)cc1` [WO 2013/178575 Example 11], for which the “Amount of degradation after 2 h” value in data set [1] is listed as 5%.
On human GPR40 receptor, `Cc1cc(-c2ccnn2C)cc(C)c1-c1cc(CNc2ccc([C@H]3C[C@@H]3C(=O)O)cn2)c(F)cc1F` [Example 92] gave an EC50 of 16 nM. Moreover, in data set [2], the solubility at 24 h was 103 µg/mL (≈ 211 µM).
Take `Cc1cnc(-c2cc(C)c(-c3ccc(F)c(CNc4ccc([C@H]5C[C@@H]5C(=O)O)cn4)c3)c(C)c2)nc1` [Example 53]: a half-maximal response on human GPR40 receptor (EC50) required 15 nM. This compound also registered a solubility at 24 h in data set [2] of 78 µg/mL (≈ 162 µM).
In turn, `Cc1cc(-c2nnn(C)n2)cc(C)c1-c1ccc(F)c(CNc2ccc([C@H]3C[C@@H]3C(=O)O)cn2)c1` [Example 48] showed an EC50 on human GPR40 receptor of 20 nM. For the same compound, the “Amount of degradation after 2 h” value in data set [1] is recorded as below 0.5%. In addition, the concentration in solution in data set [2] (solubility at 24 h) was 102 µg/mL (≈ 216 µM).
Turning to `Cc1ccc(Cl)c(-c2cc(CNc3ccc([C@H]4C[C@@H]4C(=O)O)cn3)c(F)cc2F)c1Cl` [Example 67], it took 31 nM to reach a half-maximal effect on human GPR40 receptor (EC50). The solubility at 24 h in data set [2] was found to be 84 µg/mL (≈ 181 µM).
In the same order, the values of `Cc1cc(OCC2(O)CCOCC2)cc(C)c1-c1cc(CNc2ccc([C@H]3C[C@@H]3C(=O)O)cn2)c(F)cc1F` [Example 97] are 189 nM and 123 µg/mL (≈ 228 µM).
In the case of `Cc1cccc(C)c1-c1ccc(F)c2c1CC[C@H]2Oc1ccc(C2CC2C(=O)O)cc1` (stereo partly shown) [WO 2013/178575 Example 33], the “Amount of degradation after 2 h” value in data set [1] is listed as 8%.
